Reference: US12258328B2, “6-membered heteroaryl-containing aminopyridine compounds as EGFR inhibitors” (YUHAN CORPORATION, priority 2021, dated 2025)
Read-outs that look alike come from different tables or passages of the source.

Experiments:
[1] = target: EGFR del19/T790M/C797S (Homo sapiens, UniProt P00533, C797S/DEL746-750/T790M); assay: Biochemical EGFR kinase assay (Lance Ultra TR-FRET), triple mutant del19/T790M/C797S
Procedure, shortened: (§1)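 In this biochemical assay, phosphorylation after a one-hour room-temperature reaction was detected with europium-labelled anti-phosphopeptide antibody at 2 nM final concentration.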

[2] = target: EGFR L858R/T790M/C797S (Homo sapiens, UniProt P00533, C797S/L858R/T790M); assay: Biochemical EGFR kinase assay (Lance Ultra TR-FRET), triple mutant L858R/T790M/C797S
Sequence of EGFR L858R/T790M/C797S (P00533 25-1210 T790M/C797S/L858R): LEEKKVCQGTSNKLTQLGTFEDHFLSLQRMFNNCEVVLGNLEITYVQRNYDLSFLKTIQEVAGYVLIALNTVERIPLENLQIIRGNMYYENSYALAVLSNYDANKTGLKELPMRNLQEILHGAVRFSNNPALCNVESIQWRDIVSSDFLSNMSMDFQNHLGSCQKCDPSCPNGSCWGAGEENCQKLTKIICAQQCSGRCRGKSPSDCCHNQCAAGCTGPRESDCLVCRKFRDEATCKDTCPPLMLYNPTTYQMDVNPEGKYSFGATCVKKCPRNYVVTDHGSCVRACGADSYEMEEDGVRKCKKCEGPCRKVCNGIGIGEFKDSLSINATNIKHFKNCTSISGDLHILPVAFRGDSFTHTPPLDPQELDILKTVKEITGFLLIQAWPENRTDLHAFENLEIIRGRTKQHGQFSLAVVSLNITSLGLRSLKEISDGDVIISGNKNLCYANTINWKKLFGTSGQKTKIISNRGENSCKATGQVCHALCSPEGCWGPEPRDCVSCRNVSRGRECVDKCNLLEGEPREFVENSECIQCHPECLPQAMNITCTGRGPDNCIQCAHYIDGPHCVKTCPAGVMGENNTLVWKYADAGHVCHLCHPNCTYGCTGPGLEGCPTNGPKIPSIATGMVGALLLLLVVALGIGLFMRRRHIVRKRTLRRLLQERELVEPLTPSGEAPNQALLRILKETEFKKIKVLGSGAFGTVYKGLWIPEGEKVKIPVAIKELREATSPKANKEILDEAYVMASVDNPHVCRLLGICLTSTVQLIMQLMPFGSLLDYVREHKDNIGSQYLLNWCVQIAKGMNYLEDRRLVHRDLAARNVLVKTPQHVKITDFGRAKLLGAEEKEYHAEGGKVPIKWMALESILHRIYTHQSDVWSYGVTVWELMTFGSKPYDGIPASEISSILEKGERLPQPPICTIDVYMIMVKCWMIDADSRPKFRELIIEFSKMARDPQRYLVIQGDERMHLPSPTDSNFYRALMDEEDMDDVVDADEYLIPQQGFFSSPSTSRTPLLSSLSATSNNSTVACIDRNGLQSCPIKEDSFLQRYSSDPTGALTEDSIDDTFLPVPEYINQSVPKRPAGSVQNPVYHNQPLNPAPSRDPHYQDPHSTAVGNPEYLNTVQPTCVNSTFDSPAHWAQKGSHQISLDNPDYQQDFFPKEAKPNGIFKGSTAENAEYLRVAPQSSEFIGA
Procedure, shortened: as §1

[3] = target: EGFR del19/C797S (Homo sapiens, UniProt P00533, C797S/DEL746-750); assay: Biochemical EGFR kinase assay (Lance Ultra TR-FRET), double mutant del19/C797S
Sequence of EGFR del19/C797S (P00533 with tags, fused parts or gaps DEL746-750/C797S): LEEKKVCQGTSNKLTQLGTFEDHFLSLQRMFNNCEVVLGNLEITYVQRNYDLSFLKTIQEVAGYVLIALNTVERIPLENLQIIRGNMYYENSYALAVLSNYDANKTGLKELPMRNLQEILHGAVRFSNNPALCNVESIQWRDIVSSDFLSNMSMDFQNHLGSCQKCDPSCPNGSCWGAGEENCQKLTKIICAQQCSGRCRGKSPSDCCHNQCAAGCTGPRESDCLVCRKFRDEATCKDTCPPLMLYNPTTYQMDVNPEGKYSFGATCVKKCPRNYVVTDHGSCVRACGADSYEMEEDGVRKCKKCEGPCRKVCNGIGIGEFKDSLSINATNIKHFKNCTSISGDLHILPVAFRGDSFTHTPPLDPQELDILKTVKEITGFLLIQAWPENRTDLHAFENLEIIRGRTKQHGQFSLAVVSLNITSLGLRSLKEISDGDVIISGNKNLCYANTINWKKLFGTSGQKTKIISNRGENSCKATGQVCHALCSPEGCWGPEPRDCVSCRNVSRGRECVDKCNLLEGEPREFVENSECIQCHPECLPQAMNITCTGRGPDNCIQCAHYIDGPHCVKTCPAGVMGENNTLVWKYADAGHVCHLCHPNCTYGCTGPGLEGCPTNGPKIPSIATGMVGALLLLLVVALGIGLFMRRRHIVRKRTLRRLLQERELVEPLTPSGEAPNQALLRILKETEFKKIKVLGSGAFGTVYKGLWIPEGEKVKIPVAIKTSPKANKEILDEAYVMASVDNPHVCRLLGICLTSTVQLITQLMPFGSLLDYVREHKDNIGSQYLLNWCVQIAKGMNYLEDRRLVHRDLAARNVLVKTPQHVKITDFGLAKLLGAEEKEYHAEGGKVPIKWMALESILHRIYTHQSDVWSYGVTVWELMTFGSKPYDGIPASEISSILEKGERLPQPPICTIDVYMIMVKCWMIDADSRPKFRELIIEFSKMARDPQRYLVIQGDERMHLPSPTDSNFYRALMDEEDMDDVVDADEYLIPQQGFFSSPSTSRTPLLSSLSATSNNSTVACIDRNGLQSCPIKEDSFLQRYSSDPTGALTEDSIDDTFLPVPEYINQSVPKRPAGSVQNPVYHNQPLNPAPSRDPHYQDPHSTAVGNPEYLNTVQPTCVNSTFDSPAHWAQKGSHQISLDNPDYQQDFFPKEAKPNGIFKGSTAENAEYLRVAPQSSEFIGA
Procedure, shortened: as §1

[4] = target: EGFR L858R/C797S (Homo sapiens, UniProt P00533, C797S/L858R); assay: Biochemical EGFR kinase assay (Lance Ultra TR-FRET), double mutant L858R/C797S
Sequence of EGFR L858R/C797S (P00533 25-1210 C797S/L858R): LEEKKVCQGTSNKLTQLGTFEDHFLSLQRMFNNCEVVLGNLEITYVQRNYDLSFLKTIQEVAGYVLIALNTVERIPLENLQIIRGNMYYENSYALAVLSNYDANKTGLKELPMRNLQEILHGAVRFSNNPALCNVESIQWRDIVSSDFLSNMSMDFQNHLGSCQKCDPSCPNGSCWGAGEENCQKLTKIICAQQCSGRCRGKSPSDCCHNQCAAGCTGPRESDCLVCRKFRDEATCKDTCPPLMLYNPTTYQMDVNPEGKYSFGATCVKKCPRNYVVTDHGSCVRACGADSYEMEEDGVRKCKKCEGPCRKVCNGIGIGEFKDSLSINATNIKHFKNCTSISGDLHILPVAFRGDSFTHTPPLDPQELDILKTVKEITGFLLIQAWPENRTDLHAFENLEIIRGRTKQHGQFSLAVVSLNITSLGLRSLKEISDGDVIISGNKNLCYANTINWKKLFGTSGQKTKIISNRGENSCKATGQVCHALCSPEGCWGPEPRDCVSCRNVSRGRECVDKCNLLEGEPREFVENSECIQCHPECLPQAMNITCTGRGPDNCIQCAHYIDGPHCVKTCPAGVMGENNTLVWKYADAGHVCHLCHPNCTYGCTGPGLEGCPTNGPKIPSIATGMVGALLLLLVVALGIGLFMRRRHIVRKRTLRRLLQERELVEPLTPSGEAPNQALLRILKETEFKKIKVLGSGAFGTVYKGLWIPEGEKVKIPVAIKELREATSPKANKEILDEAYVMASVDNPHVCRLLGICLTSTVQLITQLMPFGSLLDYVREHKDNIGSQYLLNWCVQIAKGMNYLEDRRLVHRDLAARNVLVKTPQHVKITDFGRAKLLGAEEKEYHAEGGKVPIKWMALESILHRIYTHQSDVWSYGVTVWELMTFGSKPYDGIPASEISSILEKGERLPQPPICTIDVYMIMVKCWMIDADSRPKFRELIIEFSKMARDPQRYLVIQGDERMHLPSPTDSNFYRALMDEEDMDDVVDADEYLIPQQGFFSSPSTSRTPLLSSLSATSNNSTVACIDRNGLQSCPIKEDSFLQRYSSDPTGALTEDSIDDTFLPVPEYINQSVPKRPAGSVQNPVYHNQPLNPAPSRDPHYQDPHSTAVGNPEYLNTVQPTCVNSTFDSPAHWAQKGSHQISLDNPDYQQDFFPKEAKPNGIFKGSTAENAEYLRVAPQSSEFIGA
Procedure, shortened: as §1

[5] = target: EGFR wildtype (Homo sapiens, UniProt P00533); assay: Biochemical EGFR kinase assay (Lance Ultra TR-FRET), wildtype
Procedure, shortened: as §1

[6] = ATP at Km, read-out: IC50 del19/T790M/C797S, Km ATP
[7] = IC50 del19/T790M/C797S, 100 μM ATP
[8] = ATP at Km, read-out: IC50 L858R/T790M/C797S, Km ATP
[9] = IC50 L858R/T790M/C797S, 100 μM ATP
[10] = ATP at Km, read-out: IC50 del19/C797S, Km ATP
[11] = ATP at Km, read-out: IC50 L858R/C797S, Km ATP
[12] = ATP at Km, read-out: IC50 WT, Km ATP
[13] = Km ATP, read-out: IC50 del19/T790M/C797S (nM) Km ATP
[14] = Km ATP, read-out: IC50 L858R/T790M/C797S (nM) Km ATP
[15] = Km ATP, read-out: IC50 del19/C797S (nM) Km ATP
[16] = Km ATP, read-out: IC50 L858R/C797S (nM) Km ATP
[17] = Km ATP, read-out: IC50 WT (nM) Km ATP

Sequence of EGFR del19/T790M/C797S (P00533 with tags, fused parts or gaps DEL746-750/T790M/C797S): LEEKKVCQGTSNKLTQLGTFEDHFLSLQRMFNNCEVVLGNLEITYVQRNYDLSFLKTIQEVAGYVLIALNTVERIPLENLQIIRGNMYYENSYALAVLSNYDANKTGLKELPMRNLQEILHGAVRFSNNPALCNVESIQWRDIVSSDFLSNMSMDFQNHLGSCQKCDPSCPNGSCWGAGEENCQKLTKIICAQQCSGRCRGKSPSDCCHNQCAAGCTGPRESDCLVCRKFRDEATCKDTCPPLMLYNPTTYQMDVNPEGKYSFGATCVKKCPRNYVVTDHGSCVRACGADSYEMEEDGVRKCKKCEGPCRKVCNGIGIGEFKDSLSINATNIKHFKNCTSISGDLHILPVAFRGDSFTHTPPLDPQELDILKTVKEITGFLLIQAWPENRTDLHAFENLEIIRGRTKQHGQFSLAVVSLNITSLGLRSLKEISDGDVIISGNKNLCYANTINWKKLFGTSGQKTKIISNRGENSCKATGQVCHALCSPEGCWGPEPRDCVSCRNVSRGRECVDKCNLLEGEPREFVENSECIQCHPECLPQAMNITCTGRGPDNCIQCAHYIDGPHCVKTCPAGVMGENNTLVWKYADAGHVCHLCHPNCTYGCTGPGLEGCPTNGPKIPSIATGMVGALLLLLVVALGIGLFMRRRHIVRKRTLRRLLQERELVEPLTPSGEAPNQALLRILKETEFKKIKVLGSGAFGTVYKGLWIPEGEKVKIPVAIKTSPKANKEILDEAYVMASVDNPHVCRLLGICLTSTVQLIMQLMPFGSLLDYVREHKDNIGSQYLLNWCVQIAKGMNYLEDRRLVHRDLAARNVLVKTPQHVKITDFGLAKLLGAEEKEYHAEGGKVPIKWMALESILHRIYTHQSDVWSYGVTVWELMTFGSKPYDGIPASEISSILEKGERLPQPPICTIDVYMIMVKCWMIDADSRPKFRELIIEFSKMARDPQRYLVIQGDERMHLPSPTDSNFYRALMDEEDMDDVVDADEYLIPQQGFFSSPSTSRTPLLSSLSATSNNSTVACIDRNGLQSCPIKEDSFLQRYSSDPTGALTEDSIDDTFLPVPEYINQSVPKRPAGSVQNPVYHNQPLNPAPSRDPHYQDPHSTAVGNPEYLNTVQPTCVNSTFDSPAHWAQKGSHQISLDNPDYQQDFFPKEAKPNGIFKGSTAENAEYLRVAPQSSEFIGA

SMILES | IC50 [1, 6] [nM] | IC50 [1, 7] [nM] | IC50 [2, 8] [nM] | IC50 [2, 9] [nM] | IC50 [3, 10] [nM] | IC50 ([3]; IC50 del19/C797S, 100 μM ATP) [nM] | IC50 [4, 11] [nM] | IC50 ([4]; IC50 L858R/C797S, 100 μM ATP) [nM] | IC50 [5, 12] [nM] | IC50 ([5]; IC50 WT, 100 μM ATP) [nM] | IC50 [1, 13] [nM] | IC50 [2, 14] [nM] | IC50 [3, 15] [nM] | IC50 [4, 16] [nM] | IC50 [5, 17] [nM]
C[C@]1(O)CC[C@@H](Nc2cc(Nc3ccnc(-c4cnn(S(=O)(=O)C5CC5)c4)n3)ncc2-c2ccc(OCCN3CCC3)cn2)CC1 [Example 290, (1s,4s)-4-((5-(2-(Azetidin-1-yl)ethoxy)-6′-((2-(1-(cyclopropylsulfonyl)-1H-pyrazol-4-yl)pyrimidin-4-yl)amino)-[2,3′-bipyridin]-4′-yl)amino)-1-methylcyclohexan-1-ol] | 0.4 | 0.4 | 0.1 | 0.2 | 0.2 | 0.3 | 0.1 | 0.6 | 0.5 | 118 |  |  |  |  | 
CC(C)(F)c1ccc(-c2cnc(Nc3ccnc(-c4cnn(S(=O)(=O)C5CC5)c4)n3)cc2N[C@H]2CC[C@@](C)(O)CC2)nc1 [Example 291, (1s,4s)-4-((6′-((2-(1-(Cyclopropylsulfonyl)-1H-pyrazol-4-yl)pyrimidin-4-yl)amino)-5-(2-fluoropropan-2-yl)-[2,3′-bipyridin]-4′-yl)amino)-1-methylcyclohexan-1-ol] | 0.5 |  | 0.5 | 1 |  | 4.9 | 2.3 | 2.8 | 3.7 | > 10000 |  |  |  |  | 
CC(F)(F)c1ccc(-c2cnc(Nc3ccnc(-c4cnn(S(=O)(=O)C5CC5)c4)n3)cc2N[C@H]2CC[C@@](C)(O)CC2)nc1 [Example 292, (1s,4s)-4-((6′-((2-(1-(Cyclopropylsulfonyl)-1H-pyrazol-4-yl)pyrimidin-4-yl)amino)-5-(1,1-difluoroethyl)-[2,3′-bipyridin]-4′-yl)amino)-1-methylcyclohexan-1-ol] | 0.6 | 2.6 | 0.6 | 1.1 | 1.4 | 9.8 | 4.4 | 19.1 | 8.9 | 5170 |  |  |  |  | 
C[C@]1(O)CC[C@@H](Nc2cc(Nc3ccnc(-c4cnn(S(=O)(=O)C5CC5)c4)n3)ncc2-c2cccc(CC(F)(F)F)n2)CC1 [Example 293, (1s,4s)-4-((6′-((2-(1-(Cyclopropylsulfonyl)-1H-pyrazol-4-yl)pyrimidin-4-yl)amino)-6-(2,2,2-trifluoroethyl)-[2,3′-bipyridin]-4′-yl)amino)-1-methylcyclohexan-1-ol] | 0.7 | 3.4 | 0.7 |  | 9.6 | 16.2 | 15.4 | 63 | 138 | 1540 |  |  |  |  | 
CC(C)Nc1cc(Nc2ccnc(-c3cnn(S(=O)(=O)C4CC4)c3)n2)ncc1-c1ccc(C(O)C(F)(F)F)cn1 (centres unmarked) [Example 294, 1-(6′-((2-(1-(Cyclopropylsulfonyl)-1H-pyrazol-4-yl)pyrimidin-4-yl)amino)-4′-(isopropylamino)-[2,3′-bipyridin]-5-yl)-2,2,2-trifluoroethan-1-ol] | 9.8 |  | 2.3 |  | 60.8 |  | 38.5 |  | 28 |  |  |  |  |  | 
CN(C)S(=O)(=O)n1cc(-c2nccc(Nc3cc(N[C@H]4CC[C@@](C)(O)CC4)c(-c4ccc(CC(F)(F)F)cn4)cn3)n2)cn1 [Example 296, 4-(4-((4′-(((1s,4s)-4-Hydroxy-4-methylcyclohexyl)amino)-5-(2,2,2-trifluoroethyl)-[2,3′-bipyridin]-6′-yl)amino)pyrimidin-2-yl)-N,N-dimethyl-1H-pyrazole-1-sulfonamide] | 4.5 |  | 3.7 |  | 17.6 |  | 10.1 |  | 89.8 |  |  |  |  |  | 
CN(C)S(=O)(=O)n1cc(-c2nccc(Nc3cc(NC4CCC(C)(O)CC4)c(-c4ccc(C(O)C(F)(F)F)cn4)cn3)n2)cn1 (centres unmarked) [Example 297, 4-(4-((4′-(((1s,4s)-4-Hydroxy-4-methylcyclohexyl)amino)-5-(2,2,2-trifluoro-1-hydroxyethyl)-[2,3′-bipyridin]-6′-yl)amino)pyrimidin-2-yl)-N,N-dimethyl-1H-pyrazole-1-sulfonamide] | 1.6 |  | 1.4 |  | 4 |  | 3 |  | 39.9 |  |  |  |  |  | 
CN(C)S(=O)(=O)n1cc(-c2nccc(Nc3cc(NC4CCC(C)(O)CC4)c(-c4ccc(C(C)(O)C(F)(F)F)cn4)cn3)n2)cn1 (centres unmarked) [Example 298, 4-(4-((4′-(((1s,4s)-4-Hydroxy-4-methylcyclohexyl)amino)-5-(1,1,1-trifluoro-2-hydroxypropan-2-yl)-[2,3′-bipyridin]-6′-yl)amino)pyrimidin-2-yl)-N,N-dimethyl-1H-pyrazole-1-sulfonamide] | 1.8 |  | 1.1 |  | 2.9 |  | 1.7 |  | 15.4 |  |  |  |  |  | 

Second part, the compound after the results:

IC50 [1, 6] [nM] | IC50 [1, 7] [nM] | IC50 [2, 8] [nM] | IC50 [2, 9] [nM] | IC50 [3, 10] [nM] | IC50 ([3]; IC50 del19/C797S, 100 μM ATP) [nM] | IC50 [4, 11] [nM] | IC50 ([4]; IC50 L858R/C797S, 100 μM ATP) [nM] | IC50 [5, 12] [nM] | IC50 ([5]; IC50 WT, 100 μM ATP) [nM] | IC50 [1, 13] [nM] | IC50 [2, 14] [nM] | IC50 [3, 15] [nM] | IC50 [4, 16] [nM] | IC50 [5, 17] [nM] | SMILES
5.7 |  | 3.2 |  | 28.6 |  | 8.5 |  | 245 |  |  |  |  |  |  | C[C@]1(O)CC[C@@H](Nc2cc(Nc3nc(-c4cnn(S(=O)(=O)C5CC5)c4)ncc3F)ncc2-c2ccc(CC(F)(F)F)cn2)CC1 [Example 299, (1s,4s)-4-((6′-((2-(1-(Cyclopropylsulfonyl)-1H-pyrazol-4-yl)-5-fluoropyrimidin-4-yl)amino)-5-(2,2,2-trifluoroethyl)-[2,3′-bipyridin]-4′-yl)amino)-1-methylcyclohexan-1-ol]
 |  |  |  |  |  |  |  |  |  | 1.9 | 0.7 | 3.5 | 2.4 | 17.4 | C[C@]1(O)CC[C@@H](Nc2cc(Nc3ccnc(-c4cnn(S(=O)(=O)C5CC5)c4)n3)ncc2-c2cc(OC(F)F)ccn2)CC1 [Example 331, (1s,4s)-4-((6′-((2-(1-(Cyclopropylsulfonyl)-1H-pyrazol-4-yl)pyrimidin-4-yl)amino)-4-(difluoromethoxy)-[2,3′-bipyridin]-4′-yl)amino)-1-methylcyclohexan-1-ol]
 |  |  |  |  |  |  |  |  |  | 1.6 | 0.7 | 2.4 | 1.8 | 21 | C[C@]1(O)CC[C@@H](Nc2cc(Nc3ccnc(-c4cnn(S(=O)(=O)C5CC5)c4)n3)ncc2-c2ccc(OC(F)F)cn2)CC1 [Example 332, (1s,4s)-4-((6′-((2-(1-(Cyclopropylsulfonyl)-1H-pyrazol-4-yl)pyrimidin-4-yl)amino)-5-(difluoromethoxy)-[2,3′-bipyridin]-4′-yl)amino)-1-methylcyclohexan-1-ol]
 |  |  |  |  |  |  |  |  |  | 4.1 | 2.6 | 460 | 795 | 117 | C[C@]1(O)CC[C@@H](Nc2cc(Nc3ccnc(-c4cnn(S(=O)(=O)C5CC5)c4)n3)ncc2-c2ncccc2OCC(F)(F)F)CC1 [Example 333, (1s,4s)-4-((6′-((2-(1-(Cyclopropylsulfonyl)-1H-pyrazol-4-yl)pyrimidin-4-yl)amino)-3-(2,2,2-trifluoroethoxy)-[2,3′-bipyridin]-4′-yl)amino)-1-methylcyclohexan-1-ol]
 |  |  |  |  |  |  |  |  |  | 2.1 | 1.4 | 170 | 191 | 189 | C[C@]1(O)CC[C@@H](Nc2cc(Nc3ccnc(-c4cnn(S(=O)(=O)C5CC5)c4)n3)ncc2-c2ncccc2OCC(F)F)CC1 [Example 334, (1s,4s)-4-((6′-((2-(1-(Cyclopropylsulfonyl)-1H-pyrazol-4-yl)pyrimidin-4-yl)amino)-3-(2,2-difluoroethoxy)-[2,3′-bipyridin]-4′-yl)amino)-1-methylcyclohexan-1-ol]
 |  |  |  |  |  |  |  |  |  | 5.8 | 2.6 | 1840 | 1780 | 248 | COc1c(F)ccnc1-c1cnc(Nc2ccnc(-c3cnn(S(=O)(=O)C4CC4)c3)n2)cc1N[C@H]1CC[C@@](C)(O)CC1 [Example 335, (1s,4s)-4-((6′-((2-(1-(Cyclopropylsulfonyl)-1H-pyrazol-4-yl)pyrimidin-4-yl)amino)-4-fluoro-3-methoxy-[2,3′-bipyridin]-4′-yl)amino)-1-methylcyclohexan-1-ol]
 |  |  |  |  |  |  |  |  |  | 345 | 43.9 | 3820 | 1670 | 235 | COc1c(F)ccnc1-c1cnc(Nc2ccnc(-c3cnn(CC(F)F)c3)n2)cc1N[C@H]1CC[C@@](C)(O)CC1 [Example 336, (1s,4s)-4-((6′-((2-(1-(2,2-Difluoroethyl)-1H-pyrazol-4-yl)pyrimidin-4-yl)amino)-4-fluoro-3-methoxy-[2,3′-bipyridin]-4′-yl)amino)-1-methylcyclohexan-1-ol]
